Experimental findings from US20090220435A1, “TIGHT JUNCTION MODULATING PEPTIDE COMPONENTS FOR ENHANCING MUCOSAL DELIVERY OF THERAPEUTIC AGENTS” (priority 2005, published 2009) are described below.

The subject of data set [1] is EpiAirway™ human-derived tracheal/bronchial epithelial cells. The data set can be described thus: Cytotoxicity (LDH assay). It is filed as cell-based. The note with it: for LDH15: 15 minute treatment at the peptide's optimal concentration; for LDH60: 60 minute treatment at the peptide's optimal concentration. The method, then: The amount of cell death was assayed by measuring the loss of lactate dehydrogenase (LDH) from the cells using a CytoTox 96 Cytoxicity Assay Kit (Promega Corp., Madison, Wis.). Fifty microliters of sample was loaded into a 96-well assay plates. Fresh, cell-free culture medium was used as a blank. 50 μl of substrate solution was added to each well and the plates incubated for 30 minutes at room temperature in the dark. Following incubation, 50 μl of stop solution was added to each well and the plates read on an optical density plate reader at 490 nm.
The amount of cell death will be assayed by measuring the loss of lactate dehydrogenase (LDH) from the cells using a CytoTox 96 Cytotoxicity Assay Kit (Promega Corp., Madison, Wis.). Fifty microliters of sample will be loaded into a 96-well assay plates. Fresh, cell-free culture medium will be used as a blank. Fifty microliters of substrate solution will be added to each well and the plates incubated for 30 minutes at room temperature in the dark. Following incubation, 50 μl of stop solution will be added to each well and the plates read on an optical density plate reader at 490 nm. The measurement of LDH release into the basolateral media indicates relative cytotoxicity of the samples. One hundred percent lysis of control inserts with 0.3% Octylphenolpoly(ethyleneglycolether)×(TritonX-100) allows LDH values to be expressed as percentage of total lysis.
In some embodiments, The amount of cell death was assayed by measuring the release of lactate dehydrogenase (LDH) from the cells into the apical medium using a CytoTox 96 Cytotoxicity Assay Kit (Promega Corp., Madison, Wis.). One percent Octylphenolpoly (ethyleneglycolether)×(Triton X-100™) diluted in phosphate buffered saline (PBS) causes 100% lysis in cultured cells and served herein as a positive control for the LDH assay. Following the one hour incubation period with a test formulation (refer to Table 24 of Example 25 for details of test formulations), the total liquid volume of each insert was brought to a final volume of 200 μl with culture medium. The apical medium was then mixed by pipetting four times with a multichannel pipette set to a 100 μl volume. After mixing, a 100 μl sample from the apical side of each insert was transferred to a new 96-well plate. The apical media samples were sealed with a plate sealer and stored at room temperature for same day analysis or stored overnight at 4° C. for analysis the next day. To measure LDH levels, 5 μl of the 100 μl apical media sample was diluted in 45 μl DPBS in a new 96-well plate. Fresh, cell-free culture medium will be used as a blank. Fifty microliters of substrate solution was added to each well and incubated for 30 minutes at room temperature away from direct light. Following the 30 minute incubation, 50 μl of stop solution was added to each well. Optical density (OD) was measured at 490 nm with a uQuant absorbance plate reader from Biotek Instruments. The measurement of LDH release into the apical media indicates relative cytotoxicity of the samples. Percent cytotoxicity for each test formulation was calculated by subtracting the measured absorbance of the PBS control (basal level of LDH release) from the measured absorbance of the individual test formulation and then dividing that value by the measured absorbance for the 1% Triton X-100™ positive control, multiplied by 100.
An LDH assay was used to assess the cytotoxicity of the treatments. The LDH level was determined by CytoTox96 Non-Radioactive Cytotoxic Assay (Promega, Madison, Wis.) following the manufacturer's protocol. For basal-lateral LDH levels, triplicates of 50 ul of the basal medium were used to determine the LDH level. For apical LDH level, 150 ul of the diluted apical sample was removed by adding 150 ul of Epi-CM to the apical chamber, the medium was mixed by pipeting up and down, and 150 ul medium was removed and diluted 2× (for a final 8-fold dilution) for assay in triplicates of 50 ul.

Data set [2] has the same test system. The data set can be described thus: Transepithelial electrical resistance (TER) across EpiAirway epithelial cell layer. It counts as cell-based.
Data set [3] in a line: Chemical stability of PN159 (stability indicating HPLC). It counts as physicochemical. Particulars: pH 9 and/or elevated temperature, 40 to 50° C. The method, then:
The chemical stability of the PN159 was determined under therapeutically relevant storage conditions. A stability indicating HPLC method was employed. Solutions (50 mM) were stored at various pH (4.0, 7.3, and 9.0) and temperature (5° C., 25° C., 35° C., 40° C., and 50° C.) conditions. Samples at pH 4 contained 10 mM citrate buffer. Samples at pH 7.3 and 9.0 contained 10 mM phosphate buffer. Representative storage stability data (including the Arrhenius plot) are depicted in FIG. 6. […] For example, at 5° C. and pH 4.0 or pH7.3, there was essentially 100% recovery of PN159 for six month storage. […] The pH range of 4.0 to 7.3 and the temperature range of refrigerated to ambient are most relevant for intranasal formulations.
The chemical stability of the PN159 was determined under therapeutically relevant storage conditions. A stability indicating HPLC method was employed. Solutions (50 mM) were stored at various pH (4.0, 7.3, and 9.0) and temperature (5° C., 25° C., 35° C., 40° C., and 50° C.) conditions. Samples at pH 4 contained 10 mM citrate buffer. Samples at pH 7.3 and 9.0 contained 10 mM phosphate buffer. […] For example, at 5° C. and pH 4.0 or pH 7.3, there was essentially 100% recovery of PN159 for six month storage. […]
The chemical stability of the PN159 was determined under therapeutically relevant storage conditions. […]

Data set [4] concerns EpiAirway™ human-derived tracheal/bronchial epithelial cells. The data set can be described thus: TER recovery after peptide treatment. The note with it: among all TJMPs tested. It is filed as cell-based.

Take `CC(C)C[C@H](NC(=O)[C@H](C)NC(=O)[C@H](CCCCN)NC(=O)[C@H](CC(C)C)NC(=O)[C@H](C)NC(=O)[C@H](CC(C)C)NC(=O)[C@H](CCCCN)NC(=O)[C@H](CC(C)C)NC(=O)[C@H](C)NC(=O)[C@H](CC(C)C)NC(=O)[C@@H](N)CCCCN)C(=O)N[C@@H](CCCCN)C(=O)N[C@@H](C)C(=O)N[C@@H](C)C(=O)N[C@@H](CC(C)C)C(=O)N[C@@H](CCCCN)C(=O)N[C@@H](CC(C)C)C(=O)N[C@@H](C)C(N)=O` [PN159]: the “% Triton-X LDH Release” value in data set [1] (25 μM, 1 h) came out at 31%. In data set [1] (25-100 μM PN159 with 2 mg/ml PTH), the “cytotoxicity (LDH)” value is given as “no significant cytotoxicity”. In data set [1], this molecule yielded an LDH15 of 0.007. In addition, in data set [1], the LDH60 is reported as 0.002. Moreover, the TER reduction is on record as 54% in data set [2] (1 μM peptide); 79% in data set [2] (2.5 μM peptide); 89% in data set [2] (10 μM peptide); 94% in data set [2] (25 μM peptide); “more than 80%” in data set [2] (PN159 25, 50, 100 μM with 2 mg/ml PTH, pH 4.5). Further, in data set [2] (25 μM, 1 h, pH 7), the “% T0 TER” value turned out to be 7%. Also, the “TER in the presence of galantamine” value in data set [2] (40 mg/ml galantamine lactate, 25, 50, 100 μM PN159, pH 5.0) is reported as “reduced TER”. Also, the “Relative TER Decrease” value in data set [2] (relative to PN159 = 1.0) is 1.0. Further, the chemical stability result in data set [3] was “rapid deterioration”.

Regarding `CC[C@H](C)[C@H](NC(=O)[C@H](CCCCN)NC(=O)[C@H](CCCCN)NC(=O)[C@H](C)NC(=O)[C@H](CC(C)C)NC(=O)[C@H](C)NC(=O)[C@H](C)NC(=O)[C@H](CC(C)C)NC(=O)[C@H](C)NC(=O)[C@H](CCCCN)NC(=O)[C@H](CC(C)C)NC(=O)[C@H](CC(N)=O)NC(=O)[C@@H](NC(=O)[C@H](CCCCN)NC(=O)CNC(=O)[C@H](CC(C)C)NC(=O)[C@H](CC(C)C)NC(=O)[C@H](Cc1ccc(O)cc1)NC(=O)CNC(=O)[C@H](C)NC(=O)[C@H](CO)NC(=O)[C@H](CC(N)=O)NC(=O)[C@H](CC(C)C)NC(=O)[C@@H](NC(=O)[C@H](Cc1c[nH]c2ccccc12)NC(=O)CN)[C@@H](C)O)[C@@H](C)CC)C(=O)N[C@@H](CC(C)C)C(N)=O` [PN161], the LDH15 in data set [1] is on record as 0.0017. The molecule further showed an LDH60 in data set [1] of 0.01. Further, the TER reduction in data set [2] (2.5 μM peptide) is reported as 11%; in data set [2] (10 μM peptide) it was 43%; in data set [2] (25 μM peptide) it was 73%; in data set [2] (100 μM peptide), 84%. Further, the TER recovery time entry in data set [4] is “fastest recovery time”.

In data set [1], “H-LLETLLKPFQCRICMRNFSTRQARRNHRRRHRR-NH2 (cysteine pairing not given here) [PN202]” yielded an LDH15 of 0.0011. In data set [1], this molecule had an LDH60 of 0.02. In addition, the TER reduction in data set [2] (10 μM peptide) was found to be 3%; in data set [2] (50 μM peptide) it was 57%; in data set [2] (100 μM peptide), 95%; in data set [2] (500 μM peptide) it was 95%. Moreover, the TER recovery time result in data set [4] is “fastest recovery time”.

For “H-RRRQRRKRGGDIMGEWGNEIFGAIAGFLG-NH2 [PN250]”, the LDH15 in data set [1] amounted to 0.0016. This molecule showed an LDH60 in data set [1] of 0.031. Further, the TER reduction in data set [2] (10 μM peptide) is recorded as 3%; in data set [2] (25 μM peptide), 17%; in data set [2] (100 μM peptide) it was 58%; in data set [2] (250 μM peptide) it was 79%; in data set [2] (500 μM peptide), 84%. The TER recovery time entry in data set [4] is “fastest recovery time”.
